# Test results: PubChem BioAssay (NCI)
#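 Step 1: Grow cells in 96-well plates. Step 2: Expose to compound for 48 hours at 5 concentrations. Step 3: Interpolate endpoints linearly; if unreached, use highest concentration. TGI marks complete inhibition of growth.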
# Legend:
# Assay in all cases: NCI-60 cell line screen, 48 h
# 786-0 renal = system: 786-0 renal
# A498 renal = system: A498 renal
# A549 NSCLC = system: A549 NSCLC
# ACHN renal = system: ACHN renal
# BT-549 breast = system: BT-549 breast
# CAKI-1 renal = system: CAKI-1 renal
# CCRF-CEM leukemia = system: CCRF-CEM leukemia
# COLO 205 colon = system: COLO 205 colon
# DU-145 prostate = system: DU-145 prostate
# EKVX NSCLC = system: EKVX NSCLC
# HCC-2998 colon = system: HCC-2998 colon
# HCT-116 colon = system: HCT-116 colon
# HCT-15 colon = system: HCT-15 colon
# HL-60(TB) leukemia = system: HL-60(TB) leukemia
# HOP-62 NSCLC = system: HOP-62 NSCLC
# HOP-92 NSCLC = system: HOP-92 NSCLC
# HS 578T breast = system: HS 578T breast
# HT29 colon = system: HT29 colon
# IGROV1 ovarian = system: IGROV1 ovarian
# K-562 leukemia = system: K-562 leukemia
# KM12 colon = system: KM12 colon
# LOX IMVI melanoma = system: LOX IMVI melanoma
# M14 melanoma = system: M14 melanoma
# MALME-3M melanoma = system: MALME-3M melanoma
# MCF7 breast = system: MCF7 breast
# MDA-MB-231 breast = system: MDA-MB-231 breast
# MDA-MB-435 = system: MDA-MB-435
# MDA-N = system: MDA-N
# MOLT-4 leukemia = system: MOLT-4 leukemia
# NCI-H226 lung = system: NCI-H226 lung
# NCI-H23 lung = system: NCI-H23 lung
# NCI-H460 lung = system: NCI-H460 lung
# NCI-H522 lung = system: NCI-H522 lung
# NCI/ADR-RES ovarian = system: NCI/ADR-RES ovarian
# OVCAR-3 ovarian = system: OVCAR-3 ovarian
# OVCAR-5 ovarian = system: OVCAR-5 ovarian
# OVCAR-8 ovarian = system: OVCAR-8 ovarian
# PC-3 prostate = system: PC-3 prostate
# RPMI-8226 leukemia = system: RPMI-8226 leukemia
# RXF 393 renal = system: RXF 393 renal
# SF-268 CNS = system: SF-268 CNS
# SF-295 CNS = system: SF-295 CNS
# SF-539 CNS = system: SF-539 CNS
# SK-MEL-2 melanoma = system: SK-MEL-2 melanoma
# SK-MEL-28 melanoma = system: SK-MEL-28 melanoma
# SK-MEL-5 melanoma = system: SK-MEL-5 melanoma
# SK-OV-3 ovarian = system: SK-OV-3 ovarian
# SN12C renal = system: SN12C renal
# SNB-19 CNS = system: SNB-19 CNS
# SNB-75 CNS = system: SNB-75 CNS
# SR leukemia = system: SR leukemia
# SW-620 colon = system: SW-620 colon
# T-47D breast = system: T-47D breast
# TK-10 renal = system: TK-10 renal
# U251 CNS = system: U251 CNS
# UACC-257 melanoma = system: UACC-257 melanoma
# UACC-62 melanoma = system: UACC-62 melanoma
# UO-31 renal = system: UO-31 renal
# OVCAR-4 ovarian = system: OVCAR-4 ovarian
smiles,measurement,setting,value
COC(=O)NC(Nc1ccc(Cl)cc1Cl)(C(F)(F)F)C(F)(F)F,TGI,786-0 renal,> 100000 nM
same,TGI,A498 renal,> 100 µM
same,TGI,A549 NSCLC,> 100 µM
same,TGI,ACHN renal,> 100 µM
same,TGI,BT-549 breast,> 100 µM
same,TGI,CAKI-1 renal,> 100 µM
same,TGI,CCRF-CEM leukemia,> 100 µM
same,TGI,COLO 205 colon,> 100 µM
same,TGI,DU-145 prostate,> 100 µM
same,TGI,EKVX NSCLC,> 100 µM
same,TGI,HCC-2998 colon,> 100000 nM
same,TGI,HCT-116 colon,> 100 µM
same,TGI,HCT-15 colon,> 100 µM
same,TGI,HL-60(TB) leukemia,> 100 µM
same,TGI,HOP-62 NSCLC,> 100000 nM
same,TGI,HOP-92 NSCLC,> 100 µM
same,TGI,HS 578T breast,> 100000 nM
same,TGI,HT29 colon,> 100 µM
same,TGI,IGROV1 ovarian,> 100 µM
same,TGI,K-562 leukemia,> 100 µM
same,TGI,KM12 colon,> 100 µM
same,TGI,LOX IMVI melanoma,> 100 µM
same,TGI,M14 melanoma,> 100 µM
same,TGI,MALME-3M melanoma,> 100000 nM
same,TGI,MCF7 breast,> 100 µM
same,TGI,MDA-MB-231 breast,> 100000 nM
same,TGI,MDA-MB-435,> 100 µM
same,TGI,MDA-N,> 100 µM
same,TGI,MOLT-4 leukemia,> 100 µM
same,TGI,NCI-H226 lung,> 100 µM
same,TGI,NCI-H23 lung,> 100 µM
same,TGI,NCI-H460 lung,> 100000 nM
same,TGI,NCI-H522 lung,> 100 µM
same,TGI,NCI/ADR-RES ovarian,> 100 µM
same,TGI,OVCAR-3 ovarian,> 100 µM
same,TGI,OVCAR-5 ovarian,> 100 µM
same,TGI,OVCAR-8 ovarian,> 100 µM
same,TGI,PC-3 prostate,> 100000 nM
same,TGI,RPMI-8226 leukemia,> 100 µM
same,TGI,RXF 393 renal,> 100000 nM
same,TGI,SF-268 CNS,> 100000 nM
same,TGI,SF-295 CNS,> 100 µM
same,TGI,SF-539 CNS,> 100000 nM
same,TGI,SK-MEL-2 melanoma,> 100 µM
same,TGI,SK-MEL-28 melanoma,> 100000 nM
same,TGI,SK-MEL-5 melanoma,> 100 µM
same,TGI,SK-OV-3 ovarian,> 100 µM
same,TGI,SN12C renal,> 100 µM
same,TGI,SNB-19 CNS,> 100 µM
same,TGI,SNB-75 CNS,> 100000 nM
same,TGI,SR leukemia,> 100 µM
same,TGI,SW-620 colon,> 100 µM
same,TGI,T-47D breast,> 100 µM
same,TGI,TK-10 renal,> 100 µM
same,TGI,U251 CNS,> 100000 nM
same,TGI,UACC-257 melanoma,> 100 µM
same,TGI,UACC-62 melanoma,> 100 µM
same,TGI,UO-31 renal,94.7 µM
CCN1C/C(=C\c2cc(OC)c(OC)c(OC)c2)C2=NN(c3ccccc3)C(c3cc(OC)c(OC)c(OC)c3)C2C1 (stereo not given),TGI,786-0 renal,1480 nM
same,TGI,A498 renal,43.6 µM
same,TGI,A549 NSCLC,4.9 µM
same,TGI,ACHN renal,> 36 µM
same,TGI,BT-549 breast,22 µM
same,TGI,CAKI-1 renal,3.85 µM
same,TGI,CCRF-CEM leukemia,8.3 µM
same,TGI,COLO 205 colon,7.13 µM
same,TGI,DU-145 prostate,23.6 µM
same,TGI,EKVX NSCLC,11.4 µM
same,TGI,HCC-2998 colon,2250 nM
same,TGI,HCT-116 colon,5.77 µM
same,TGI,HCT-15 colon,25.7 µM
same,TGI,HL-60(TB) leukemia,> 23.8 µM
same,TGI,HOP-62 NSCLC,2510 nM
same,TGI,HOP-92 NSCLC,13.5 µM
same,TGI,HS 578T breast,1320 nM
same,TGI,HT29 colon,6.8 µM
same,TGI,IGROV1 ovarian,21.3 µM
same,TGI,KM12 colon,> 36 µM
same,TGI,LOX IMVI melanoma,10.6 µM
same,TGI,M14 melanoma,6.48 µM
same,TGI,MALME-3M melanoma,1640 nM
same,TGI,MCF7 breast,> 38.1 µM
same,TGI,MDA-MB-231 breast,1540 nM
same,TGI,MDA-MB-435,6.51 µM
same,TGI,MDA-N,10.8 µM
same,TGI,MOLT-4 leukemia,> 19.8 µM
same,TGI,NCI-H226 lung,11.1 µM
same,TGI,NCI-H23 lung,19.2 µM
same,TGI,NCI-H460 lung,2240 nM
same,TGI,NCI-H522 lung,3.06 µM
same,TGI,NCI/ADR-RES ovarian,7.4 µM
same,TGI,OVCAR-3 ovarian,> 25.1 µM
same,TGI,OVCAR-4 ovarian,24.6 µM
same,TGI,OVCAR-5 ovarian,12.3 µM
same,TGI,OVCAR-8 ovarian,4.72 µM
same,TGI,PC-3 prostate,2460 nM
same,TGI,RXF 393 renal,2200 nM
same,TGI,SF-268 CNS,1580 nM
same,TGI,SF-295 CNS,18.5 µM
same,TGI,SF-539 CNS,1910 nM
same,TGI,SK-MEL-2 melanoma,31.9 µM
same,TGI,SK-MEL-28 melanoma,2000 nM
same,TGI,SK-MEL-5 melanoma,15.5 µM
same,TGI,SK-OV-3 ovarian,6.38 µM
same,TGI,SN12C renal,11.3 µM
same,TGI,SNB-19 CNS,6 µM
same,TGI,SNB-75 CNS,1320 nM
same,TGI,SR leukemia,65.5 µM
same,TGI,SW-620 colon,> 100 µM
same,TGI,T-47D breast,18 µM
same,TGI,TK-10 renal,6.14 µM
same,TGI,U251 CNS,1850 nM
same,TGI,UACC-257 melanoma,12.7 µM
same,TGI,UACC-62 melanoma,> 54.2 µM
same,TGI,UO-31 renal,6.68 µM
